Earlier results in patent US20120302647A1, “SYNTHESIS OF MAGNOLOL AND ITS ANALOGUE COMPOUNDS” (INDIAN INSTITUTE OF CHEMICAL TECHNOLOGY, priority 2010, published 2012).

Columns and labels:
[1] = test system: cortical neuron-astrocyte mixed cultures; conditions: chemical hypoxia by KCN
[2] = times greater than α-tocopherol

C=CCc1ccc(O)c(-c2cc(CC=C)ccc2O)c1 [magnolol, 5,5′-diallylbiphenyl-2,2′-diol]
protection of neurons against chemical hypoxia [1]: protects neurons against chemical hypoxia by KCN | antioxidant activity relative to α-tocopherol [2]: 1000 times | protection of the myocardium against infarction and reperfusion injury (myocardium): protecting the myocardium against infarction and reperfusion injury
